The results in this text go back to patent publication US20240238425A1, “HSD17B13 Inhibitors and/or Degraders” (Pfizer Inc., priority 2022, published 2024).

Where a name gives a salt, the structure may show the parent alone.

The test system of this experiment is HiBiT-HSD17β13 fusion protein (N-terminal HiBiT-tagged HSD17β13 isoform D) in Huh7 HiBiT-HSD17β13 OE cells. As to the kind of experiment: Whole-cell Huh7-HSD17B13 HiBiT assay (degrader potency and maximal efficacy, luminescence readout). In kind it is cell-based, human. Conditions: 24 hour incubation, geometric mean, * = geometric mean for all forms tested (parent and salt forms); for DC50: read-out: Huh7_HIBIT-HSD17β13_DC50 GMean DC50; for Huh7_HIBIT-HSD17β13_DC50 GMean Asymptote Maximum: max. concentration 1 μM. The procedure:
Degrader potency and maximal efficacy of test compounds were determined using a whole-cell Huh7-HSD17B13 HiBiT assay, utilizing a luminescence readout. A HiBiT tag was fused to the N-terminus of HSD17β13, and therefore the HiBiT luminescence signal produced in the assay was proportional to the level of HiBiT-HSD17β13 fusion protein in a sample.
A Huh7 HiBiT-HSD17β13 OE cell line was generated using electroporation with an N-terminal HiBiT-tagged HSD17β13 isoform D overexpression plasmid, followed by geneticin selection to produce a stable pool. Clones were created with varying HiBiT signals to optimize HiBiT HSD17 β13 ratios. A clone with similar HSD17β13 expression levels as human primary hepatocytes was selected for the compound screen.
Greiner 384-well white opaque, flat bottom, tissue culture treated plates (Greiner #781080) were used for both HiBiT and CTG assays. The treated plates were spotted with 25 nL of a compound which had been serial diluted 1 in 3.162 in 100% DMSO for an 11-point concentration response curve, with duplicate points at each concentration. The maximum concentration of the compounds was 1 mM, which was later diluted with cell suspension for a maximum concentration of 1 μM). High percentage effect (HPE) wells and zero percentage effect (ZPE) wells located in columns 1 and 24 were spotted with 25 nL of DMSO (Sigma #D2650) using an ECHO Acoustic Liquid Handler (Labcyte Echo 550 Series). Each plate was performed in duplicate.
The Huh7 HiBiT-HSD17β13 OE cells were plated on top of a compound or a DMSO control at 3,000 viable cells/well in 25 μL growth media (DMEM (Gibco #10569), 10% FBS HI (Gibco #16140), 1× Pen/Strep (Gibco #15070), 1×MEM Non-Essential Amino Acids (Gibco #11140), and 300 μg/mL Geneticin (Gibco #10131) in columns 2-24 of the plates. Huh7 parental cells were plated using the same parameters in column 1 (HPE) in the same culture medium, excluding Geneticin selection. Cells were incubated overnight with the compounds for 24 hours (with lid) at 37° C. ([…]).
Each assay was conducted after a 24 hour incubation period. In the HiBiT assay plates, 25 μL of complete Nano-Glo HiBiT Lytic detection system (Promega #PRN3040), consisting of HiBiT Lytic Buffer with the addition of 1:100 LgBiT Protein and 1:50 Substrate, was added to each well. In CTG counter screen plates, 25 μL of Cell Titer-Glo Luminescent Reagent (Promega #G7573) was added to each well. Both plates were centrifuged for 2 minutes at 1000 rpm and incubated at room temperature, in the dark, for 10 minutes. Then Luminescence was read using an EnVision Plate Reader (Perkin Elmer PE2103).
The raw data from the Envision Plate Reader was expressed as relative luminescence units (RLUs) for each well of the assay plates. Using HPE and ZPE controls, the % effect was calculated for each sample well as follows: Percent effect=[(sample RLU−HPE RLU)\(ZPE RLU−HPE RLU)]*100. The percent effect was plotted versus the compound concentration and a 50% degradation ([…]) was determined using a four-parameter logistic dose response equation. The raw data was analyzed using ABase (IDBS).
(In general: HiBiT is a short tag that completes a luciferase, so light tracks the accessible tagged protein.)

In the case of `Cc1ccc(C(=O)N2CCN(CCOc3ncc(-c4ccc5cn(C67CCC(CNC(=O)c8cc(F)c(O)c(F)c8F)(CC6)CC7)nc5c4)cn3)CC2)cc1N1CCC(=O)NC1=O` [Example 91, N-[(4-{6-[2-(2-{4-[3-(2,4-dioxo-1,3-diazinan-1-yl)-4-methylbenzoyl]piperazin-1-yl}ethoxy)pyrimidin-5-yl]-2H-indazol-2-yl}bicyclo[2.2.2]octan-1-yl)methyl]-2,3,5-trifluoro-4-hydroxybenzamide], the DC50 worked out at 3.2 nM and the “Huh7_HIBIT-HSD17β13_DC50 GMean Asymptote Maximum” value is 73%.
For `Cc1ccc(C(=O)N2CCC3(CC2)CC(N2CCN(c4cnc(-c5ccc6cn([C@H]7CC[C@H](CNC(=O)c8cc(F)c(O)c(F)c8F)CC7)nc6c5)cn4)CC2)CO3)cc1N1CCC(=O)NC1=O` (some centres unmarked) [Example 71, N-{[(1r,4r)-4-{6-[5-(4-{8-[3-(2,4-dioxo-1,3-diazinan-1-yl)-4-methylbenzoyl]-1-oxa-8-azaspiro[4.5]decan-3-yl}piperazin-1-yl)pyrazin-2-yl]-2H-indazol-2-yl}cyclohexyl]methyl}-2,3,5-trifluoro-4-hydroxybenzamide, trifluoroacetate salt], in that order: 2.4 nM and 76%.
In the case of `Cn1c(=O)n(C2CCC(=O)NC2=O)c2ccc(C3CC4(CCN(c5ncc(-c6ccc7cn([C@H]8CC[C@H](CNC(=O)c9cc(F)c(O)c(F)c9F)CC8)nc7c6)cn5)CC4)C3)cc21` (mixture of isomers) [Example 80, N-{[(1r,4r)-4-{6-[2-(2-{1-[(3RS)-2,6-dioxopiperidin-3-yl]-3-methyl-2-oxo-2,3-dihydro-1H-benzimidazol-5-yl}-7-azaspiro[3.5]nonan-7-yl)pyrimidin-5-yl]-2H-indazol-2-yl}cyclohexyl]methyl}-2,3,5-trifluoro-4-hydroxybenzamide, trifluoroacetate salt], the DC50 amounted to 1.4 nM and the “Huh7_HIBIT-HSD17β13_DC50 GMean Asymptote Maximum” value was found to be 84%.
Take `Cn1c(=O)n(C2CCC(=O)NC2=O)c2ccc(CCCN3Cc4ccc(-c5ccc6c(C7CC7)n([C@H]7CC[C@H](CNC(=O)c8cc(F)c(O)c(F)c8F)CC7)nc6c5)cc4C3)cc21` (mixture of isomers) [Example 129, N-{[(1r,4r)-4-{3-cyclopropyl-6-[2-(3-{1-[(3RS)-2,6-dioxopiperidin-3-yl]-3-methyl-2-oxo-2,3-dihydro-1H-benzimidazol-5-yl}propyl)-2,3-dihydro-1H-isoindol-5-yl]-2H-indazol-2-yl}cyclohexyl]methyl}-2,3,5-trifluoro-4-hydroxybenzamide, trifluoroacetate salt]: the DC50 was determined as 0.42 nM and the “Huh7_HIBIT-HSD17β13_DC50 GMean Asymptote Maximum” value came to 83%.
For `Cc1ccc(C(=O)N2CCC3(CCC(c4nc(-c5ccc6cn([C@H]7CC[C@H](CNC(=O)c8cc(F)c(O)c(F)c8F)CC7)nc6c5)no4)CC3)CC2)cc1N1CCC(=O)NC1=O` [Example 96, N-({(1r,4r)-4-[6-(5-{3-[3-(2,4-dioxo-1,3-diazinan-1-yl)-4-methylbenzoyl]-3-azaspiro[5.5]undecan-9-yl}-1,2,4-oxadiazol-3-yl)-2H-indazol-2-yl]cyclohexyl}methyl)-2,3,5-trifluoro-4-hydroxybenzamide], in that order: 2.7 nM and 81%.
Take `Cc1ccc(C(=O)N2CCC3(CCC(N4CCN(c5ccc6cn([C@H]7CC[C@H](CNC(=O)c8cc(F)c(O)c(F)c8F)CC7)nc6c5)CC4)CC3)CC2)cc1N1CCC(=O)NC1=O` [Example 111, N-({(1r,4r)-4-[6-(4-{3-[3-(2,4-dioxo-1,3-diazinan-1-yl)-4-methylbenzoyl]-3-azaspiro[5.5]undecan-9-yl}piperazin-1-yl)-2H-indazol-2-yl]cyclohexyl}methyl)-2,3,5-trifluoro-4-hydroxybenzamide, trifluoroacetate salt]: the DC50 is 0.85 nM and the “Huh7_HIBIT-HSD17β13_DC50 GMean Asymptote Maximum” value came out at 80%.
On to `Cc1ccc(C(=O)N2CCC(CCCn3cc(-c4ccc5cn([C@H]6CC[C@H](CNC(=O)c7cc(F)c(O)c(F)c7)CC6)nc5c4)cn3)CC2)cc1N1CCC(=O)NC1=O` [Example 23, N-{[(1r,4r)-4-{6-[1-(3-{1-[3-(2,4-dioxo-1,3-diazinan-1-yl)-4-methylbenzoyl]piperidin-4-yl}propyl)-1H-pyrazol-4-yl]-2H-indazol-2-yl}cyclohexyl]methyl}-3,5-difluoro-4-hydroxybenzamide], for which the 50% degradation concentration (DC50) came out at 2.4 nM and the “Huh7_HIBIT-HSD17β13_DC50 GMean Asymptote Maximum” value worked out at 75%.
`O=C(O)C(F)(F)F.O=C1CCN(c2cnc3cc(CCCN4CCN(c5ncc(-c6ccc7cn(C8CCC(CNC(=O)c9cc(F)c(O)c(F)c9F)CC8)nc7c6)cn5)CC4)ccn23)C(=O)N1` (centres unmarked) [Example 19, N-{[(1r,4r)-4-{6-[2-(4-{3-[3-(2,4-Dioxo-1,3-diazinan-1-yl)imidazo[1,2-a]pyridin-7-yl]propyl}piperazin-1-yl)pyrimidin-5-yl]-2H-indazol-2-yl}cyclohexyl]methyl}-2,3,5-trifluoro-4-hydroxybenzamide, trifluoroacetate salt]: the DC50 amounted to 0.73 nM and the “Huh7_HIBIT-HSD17β13_DC50 GMean Asymptote Maximum” value came out at 82%.
Turning to `Cc1ccc(C(=O)N2CCN(C3CCN(c4ncc(-c5ccc6cn([C@H]7CC[C@H](CNC(=O)c8cc(F)c(O)c(F)c8F)CC7)nc6c5)cn4)CC3)CC2)cc1N1CCC(=O)NC1=O` [Example 90, N-{[(1r,4r)-4-{6-[2-(4-{4-[3-(2,4-dioxo-1,3-diazinan-1-yl)-4-methylbenzoyl]piperazin-1-yl}piperidin-1-yl)pyrimidin-5-yl]-2H-indazol-2-yl}cyclohexyl]methyl}-2,3,5-trifluoro-4-hydroxybenzamide], the DC50 worked out at 6.1 nM and the “Huh7_HIBIT-HSD17β13_DC50 GMean Asymptote Maximum” value is 60* %.
In the same order, the values of `Cn1c(=O)n(C2CCC(=O)NC2=O)c2ccc(CCCN3CCN(c4ncc(-c5ccc6cn([C@]78CC[C@](CNC(=O)c9cc(F)c(O)c(F)c9F)(CC7)CC8)nc6c5)cn4)CC3)cc21` (mixture of isomers) [Example 95, N-{[4-(6-{2-[4-(3-{1-[(3RS)-2,6-dioxopiperidin-3-yl]-3-methyl-2-oxo-2,3-dihydro-1H-benzimidazol-5-yl}propyl)piperazin-1-yl]pyrimidin-5-yl}-2H-indazol-2-yl)bicyclo[2.2.2]octan-1-yl]methyl}-2,3,5-trifluoro-4-hydroxybenzamide, trifluoroacetate salt] are 0.24 nM and 80%.
Regarding `Cn1c(=O)n(C2CCC(=O)NC2=O)c2ccc(CCCN3CCN(c4nccc(-c5nc([C@]67CC[C@](CNC(=O)c8cc(F)c(O)c(F)c8F)(CC6)CC7)no5)n4)CC3)cc21` (mixture of isomers) [Example 121, formate salt], the DC50 stood at 0.2 nM and the “Huh7_HIBIT-HSD17β13_DC50 GMean Asymptote Maximum” value was 85%.
For `Cc1ccc(C(=O)N2CCC3(CC2)CC(N2CCN(c4ccc5cn([C@H]6CC[C@H](CNC(=O)c7cc(F)c(O)c(F)c7F)CC6)nc5c4)CC2)C3)cc1N1CCC(=O)NC1=O` [Example 82, N-({(1r,4r)-4-[6-(4-{7-[3-(2,4-dioxo-1,3-diazinan-1-yl)-4-methylbenzoyl]-7-azaspiro[3.5]nonan-2-yl}piperazin-1-yl)-2H-indazol-2-yl]cyclohexyl}methyl)-2,3,5-trifluoro-4-hydroxybenzamide, trifluoroacetate salt], in that order: 2 nM and 74%.
For `Cn1c(=O)n(C2CCC(=O)NC2=O)c2ccc(CCCN3CCOC4(C3)CN(c3ncc(-c5ccc6cn(C7CCC(CNC(=O)c8cc(F)c(O)c(F)c8F)CC7)nc6c5)cn3)C4)cc21.O=C(O)C(F)(F)F` (racemic) [Example 13, N-{[(1r,4r)-4-(6-{2-[8-(3-{1-[(3RS)-2,6-Dioxopiperidin-3-yl]-3-methyl-2-oxo-2,3-dihydro-1H-benzimidazol-5-yl}propyl)-5-oxa-2,8-diazaspiro[3.5]nonan-2-yl]pyrimidin-5-yl}-2H-indazol-2-yl)cyclohexyl]methyl}-2,3,5-trifluoro-4-hydroxybenzamide, trifluoroacetate salt], in that order: 0.14 nM and 81%.

In general, DC50 refers to the midpoint of the concentration-degradation curve.
